Measured values from PMC12155470, “Novel Tetraene Macrodiolides Are Effective Inducers of Mitochondrial Apoptosis in Jurkat Cells” (International Journal of Molecular Sciences, 2025).

Key:
HL60 = experiment: In vitro cytotoxic activity, 7-AAD flow cytometry, HL60; assay type: cell-based; conditions: Homo sapiens, HL-60, 24 h incubation, mean ± SD, triplicate
Description: (§1) The investigation focused on the assessment of the synthesized compounds’ toxicities, utilizing a panel of six diverse cell lines. The selection of cells was based on the specific features of their metabolism, namely, Jurkat, K562, U937, and HL60 cells are suspension cultures of oncohematologic origin, and HEK293 is a conditionally normal line transformed by adenovirus and often used as control cells along with fibroblasts. The normal fibroblast line (Wi-38) utilized in the experiment was diploid and was obtained from the lung tissue of an aborted fetus. The total cytotoxic activity of 16 compounds was studied using flow cytometry.
(§2) Human cancer cell lines, including Jurkat, K562, U937, HL60, and fibroblasts (Wi-38), were obtained from the European Authentic Cell Culture Collection and further cultured according to established standard protocols using sterile methods. The cells were cultivated in RPMI 1640 (for Jurkat and K562) and DMEM (for Wi-38 and HEK293) media (Gibco, Billings, MT, USA), with the addition of […] glutamine, 10% FBS (Sigma, Kanagawa, Japan), and 100 U/mL penicillin–streptomycin (Sigma). All cell types were cultivated in a humidified atmosphere containing 5% CO₂ at a temperature of 37 °C. Subculturing was performed at two- to three-day intervals. The cells were subsequently seeded into 24-well plates at a density of 5 × 10^4 cells per well and incubated overnight. Subsequent subculturing was then performed at two-day intervals, with a seeding density of 1 × 10^5 cells per 24-well plate, using RPMI medium with 10% FBS [49].
(§3) The dissolution of the compounds tested was initially performed in dimethyl sulfoxide (DMSO) with an initial solution of 100 mM in 10% DMSO. Subsequently, the solution was diluted in a complete culture medium, namely, Dulbecco’s medium, modified Eagle’s medium (DMEM), or Roswell Park Memorial Institute medium (RPMI). Substances were added at concentrations of 10, 1, 100, 10, 1, and 0.1 μM on the day after seeding and incubated for 24 h. Following this, the cells were washed with a phosphate-buffered saline (PBS) solution and stained with 7AAD dye, as per the manufacturer’s protocol for flow cytometry. The CC50 value, which characterizes the parameters of toxicity (i.e., the concentration of the compound required for 50% inhibition of cell viability in vitro), was calculated. logC versus % inhibition was plotted, and statistical data processing was performed using Excel and GraphPad Prism v.8.0.2 (San Diego, CA, USA, 2019). The data obtained from three independent experiments were expressed as the mean of three measurements for each concentration, with the standard deviation indicated as well. These values were then relative to the control values (0.1% DMSO), which were taken as 100%.
(§4) 7-AAD (7-aminoactinomycin D) dye (eBioscience™, San Diego, CA, USA) was used to assess cell viability. Following incubation with the test compounds, the cells were harvested, washed with a phosphate–salt buffer (PBS), and subjected to centrifugation at 400× g for five minutes. The cell sediment was resuspended in 200 μL of staining buffer for flow cytometry (PBS without calcium and magnesium, 2.5% FBS) and stained with a 1 mM 7-AAD dye solution for 15 min in the dark at room temperature. Subsequently, all samples, including experimental and control groups, were analyzed using a BD FACSAria™ III Cell Sorter flow cytometer (Milpitas, CA, USA).

Jurkat cells [1] = experiment: Mitodamage assay (MitoSense Red, Annexin V-CF488A, 7-AAD); assay type: cell-based, Human; conditions: compound at CC50 concentration, four hours
Experimental: To this end, MitoSense Red, a fluorescent dye that accumulates predominantly in mitochondria and responds to changes in membrane potential, was utilized. […] Two dyes commonly employed for detecting apoptosis in cells are annexin V and 7AAD. […] Therefore, the dissipation of mitochondrial membrane potential and the associated apoptosis process in Jurkat tumor cells were analyzed in response to exposure to synthesized macrodiolides. MitoSense Red, Annexin V-CF488A, and 7-AAD were used as dyes for this analysis (see Figure 3). A flow cytometry kit (FlowCellect™ MitoDamage Kit from Millipore, Hayward, CA USA) was utilized, as it facilitates a multiparametric evaluation of three markers of cell health. These markers include changes in mitochondrial potential (early apoptosis and cell stress), phosphatidylserine expression on the cell surface (late apoptosis), and membrane permeability (cell death). The method of the simultaneous detection of mitochondrial damage was performed according to the well-known technique.  Figure 3 Detection changes in mitochondrial membrane potential (ΔΨ) and coupled early and late apoptosis in Jurkat cells treated with compounds 9d, 8d, 7d, and 6d. Staurosporine and carbonyl cyanide-m-chlorophenylhydrazone were utilized as control compounds. The addition of all the tested compounds was executed at the CC50 concentration (refer to the provided table for the cytotoxicities of the synthesized compounds). The staining of cells was conducted using MitoSense Red, Annexin V-CF488A, and 7-AAD. The incubation period lasted for a duration of four hours. The presence of three *** (p < 0.001) and two asterisks ** (p < 0.005) indicates the significance of the observed differences between the values obtained in the control sample and the samples treated with the synthesized substances (comparison was performed by one-way ANOVA). All experiments were performed in triplicate.

[2] = In vitro cytotoxic activity, 7-AAD flow cytometry, Hek293; assay type: cell-based; conditions: human, HEK293 cells, conditionally normal line, 24 h incubation, mean ± SD
Description: as §1, §2, §3, §4

[3] = In vitro cytotoxic activity, 7-AAD flow cytometry, normal fibroblasts; assay type: cell-based; conditions: human, Wi-38 normal lung fibroblasts, normal fibroblasts Wi-38, 24 h incubation, mean ± SD, read-out: Fibrobl. (CC50)
Description: as §1, §2, §3, §4

Jurkat = experiment: In vitro cytotoxic activity, 7-AAD flow cytometry, Jurkat; assay type: cell-based, Human; conditions: 24 h incubation, mean ± SD, triplicate
Description: as §1, §2, §3, §4

K562 = experiment: In vitro cytotoxic activity, 7-AAD flow cytometry, K562; assay type: cell-based, Human; conditions: 24 h incubation, mean ± SD, triplicate
Description: as §1, §2, §3, §4

U937 = experiment: In vitro cytotoxic activity, 7-AAD flow cytometry, U937; assay type: cell-based, Human; conditions: Homo sapiens, U-937, 24 h, 24 h incubation, mean ± SD, triplicate
Description: as §1, §2, §3, §4

Jurkat cells [4] = experiment: Cytochrome C assay (flow cytometry); assay type: cell-based, Human; conditions: compound at CC50 concentration, 6 h (Figure 4; method says four hours)
Description: The quantification of cytochrome c release from the mitochondria in apoptotic cells was used to detect the mitochondrial pathway of apoptosis in the cells by flow cytometry. This study employed a direct labeling method that utilized an anti-cytochrome cFITC antibody, an anti-IgG1-FITC isotype control, and optimized fixation, permeabilization, and blocking buffers to detect cytochrome c by flow cytometry (Luminex®, Austin, TX, USA). […] The Jurkat cells were exposed to test substances at concentrations corresponding to their 24-h CC50 in these cells for a period of four hours. Thereafter, analysis by flow cytometry (NovoCyte Flow Cytometry™ Agilent, San Diego, CA, USA) was conducted. The acquired data were processed using NovoExpress® software (version 1.6.2) (ACEA (Agilent, Santa Clara, CA, USA)).
Figure 4 Detection of cytochrome c in Jurkat cells stained with a FlowCellect Cytochrome c Kit. The control compound, carbonyl cyanide m-chlorophenylhydrazone (CCCP), was administered at a concentration equal to its CC50 value. Compound 9d was added to the sample cells at a CC50 concentration (see the table of cell viability). The cells were incubated for 6 h. We compared the numerical values to determine the reliability of the differences observed between the control sample and the samples treated with the synthesized substances. […]

SMILES: O=C1CCCCC/C=C\CC/C=C\CCCCCC(=O)OCCCCCC/C=C\CC/C=C\CCCCCCO1 [Compound 9d]
- CC50 (HL60): 13.5 ± 1.21 nM
- percentage of cells in apoptosis (Jurkat cells [1]; Jurkat, Annexin V-CF488A/7-AAD): 50.34%
- Jurkat cells with reduced mitochondrial membrane potential (Δψ dissipation) (Jurkat cells [1]; MitoSense Red): 77.42%
- CC50 at 24 h [2]: 42.6 ± 4.31 nM
- CC50 at 24 h [3]: 64.3 ± 5.81 nM
- CC50 (Jurkat): 12.1 ± 1.77 nM
- CC50 (Jurkat; Homo sapiens, Jurkat, 24 h): 11 nM
- CC50 (K562): 11 ± 1.25 nM
- CC50 (K562; Homo sapiens, K562, 24 h): 12.1 nM
- CC50 (U937): 12.2 ± 1.41 nM
- cells releasing cytochrome c into the cytoplasm (Cytochrome loss %) (Jurkat cells [4]): 68.22%
